Test results as given in paper PMC11287240 (RSC Advances, 2024).

Assays:
[1] = molecular target: EeAChE (Electrophorus electricus acetylcholinesterase) (Electrophorus electricus, UniProt O42275); assay: AChE inhibition assay; format: biochemical, electric eel
hBACE 1 = hBACE 1 (Homo sapiens, UniProt P56817); assay: BACE 1 FRET inhibition assay; format: biochemical; details: human BACE 1
[2] = hBACE 1 IC50 (μM) ± SD, mean ± SD, n = 3, FRET assay

Sequence of EeAChE (Electrophorus electricus acetylcholinesterase) (O42275 24-633): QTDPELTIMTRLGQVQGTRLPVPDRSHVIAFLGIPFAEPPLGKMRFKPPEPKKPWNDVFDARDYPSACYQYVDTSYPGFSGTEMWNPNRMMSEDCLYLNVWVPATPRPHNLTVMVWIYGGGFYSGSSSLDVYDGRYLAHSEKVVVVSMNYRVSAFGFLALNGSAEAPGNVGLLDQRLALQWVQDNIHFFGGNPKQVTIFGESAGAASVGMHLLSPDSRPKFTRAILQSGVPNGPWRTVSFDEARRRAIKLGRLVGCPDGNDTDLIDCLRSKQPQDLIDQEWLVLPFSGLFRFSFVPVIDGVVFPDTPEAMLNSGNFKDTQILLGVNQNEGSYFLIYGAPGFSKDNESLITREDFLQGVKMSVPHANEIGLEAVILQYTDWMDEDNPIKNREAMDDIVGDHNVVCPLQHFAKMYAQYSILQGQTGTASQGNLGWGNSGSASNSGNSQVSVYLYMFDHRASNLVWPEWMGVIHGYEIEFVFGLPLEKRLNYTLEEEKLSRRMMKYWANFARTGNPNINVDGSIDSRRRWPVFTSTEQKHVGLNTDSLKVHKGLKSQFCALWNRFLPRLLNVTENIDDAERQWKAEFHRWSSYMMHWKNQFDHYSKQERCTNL
Sequence of hBACE 1 (P56817 46-501): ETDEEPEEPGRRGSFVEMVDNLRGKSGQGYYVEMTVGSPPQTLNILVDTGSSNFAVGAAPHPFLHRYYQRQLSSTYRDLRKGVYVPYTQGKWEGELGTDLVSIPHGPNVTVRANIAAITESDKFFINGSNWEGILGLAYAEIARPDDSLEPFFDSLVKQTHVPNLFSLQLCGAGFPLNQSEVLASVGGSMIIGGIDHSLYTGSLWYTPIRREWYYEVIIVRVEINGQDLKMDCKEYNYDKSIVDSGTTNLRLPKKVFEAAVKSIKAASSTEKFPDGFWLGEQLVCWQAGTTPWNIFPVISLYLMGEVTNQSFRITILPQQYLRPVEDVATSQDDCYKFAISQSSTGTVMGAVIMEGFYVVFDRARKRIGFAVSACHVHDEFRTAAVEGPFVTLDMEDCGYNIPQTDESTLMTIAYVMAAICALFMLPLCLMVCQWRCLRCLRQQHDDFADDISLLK

Row | Structure (SMILES) | IC50 [1] [µM] | IC50 (hBACE 1; [2]) [µM] | IC50 (hBACE 1; hBACE 1 PIC50 (μM)) [µM]
1 | [H]/N=C(/N)NN=C(/C=C/c1ccccc1)c1cn(Cc2ccccc2C#N)c2ccccc12 [Compound 2e, (Z)-2-((E)-1-(1-(2-Cyanobenzyl)-1H-indol-3-yl)-3-phenylallylidene)hydrazine-1-carboximidamide] | 44.02 ± 0.19 | 197 ± 2.42 | 195
2 | [H]/N=C(/N)NN=C(/C=C/c1cccc(F)c1)c1cn(Cc2ccccc2)c2ccccc12 [Compound 1f, (Z)-2-((E)-1-(1-Benzyl-1H-indol-3-yl)-3-(3-fluorophenyl)allylidene)hydrazine-1-carboximidamide] | 67 ± 1.95 | 88.59 ± 0.32 | 89.1
3 | [H]/N=C(/N)NN=C(/C=C/c1ccc(C(C)C)cc1)c1cn(Cc2ccccc2)c2ccccc12 [Compound 1d, (Z)-2-((E)-1-(1-Benzyl-1H-indol-3-yl)-3-(4-isopropylphenyl)allylidene)hydrazine-1-carboximidamide] | 146 ± 3.18 | 11.7 ± 0.15 | 11.7
4 | [H]/N=C(/N)NN=C(/C=C/c1ccc(OCc2ccccc2)cc1)c1cn(Cc2cccc(OCc3ccccc3)c2)c2ccccc12 [Compound 3i, (Z)-2-((E)-1-(1-(3-(Benzyloxy)benzyl)-1H-indol-3-yl)-3-(4-(benzyloxy)phenyl)allylidene)hydrazine-1-carboximidamide] | 26.99 ± 0.13 | 189 ± 1.91 | 191
5 | [H]/N=C(/N)NN=C(/C=C/c1ccccc1)c1cn(Cc2ccc(C(F)(F)F)cc2)c2ccccc12 [Compound 2b, (Z)-2-((E)-3-Phenyl-1-(1-(4-(trifluoromethyl)benzyl)-1H-indol-3-yl)allylidene)hydrazine-1-carboximidamide] | 56 ± 2.44 | 102 ± 1.06 | 102
6 | [H]/N=C(/N)NN=C(/C=C/c1ccc(OCc2ccccc2)cc1)c1cn(Cc2ccc(C)cc2)c2ccccc12 [Compound 3e, (Z)-2-((E)-3-(4-(Benzyloxy)phenyl)-1-(1-(4-methylbenzyl)-1H-indol-3-yl)allylidene)hydrazine-1-carboximidamide] | 144 ± 1.77 | 107 ± 2.55 | 107
7 | [H]/N=C(/N)NN=C(/C=C/c1ccc(C(F)(F)F)cc1)c1cn(Cc2ccc(CCCC)cc2)c2ccccc12 [Compound 3j, (Z)-2-((E)-1-(1-(4-Butylbenzyl)-1H-indol-3-yl)-3-(4-(trifluoromethyl)phenyl)allylidene)hydrazine-1-carboximidamide] | 13.4 ± 0.49 | 182.4 ± 1.41 | 182
8 | [H]/N=C(/N)NN=C(/C=C/c1ccc(OC)c(OC)c1)c1cn(Cc2cc(OC)cc(OC)c2)c2ccccc12 [Compound 3b, (Z)-2-((E)-1-(1-(3,5-Dimethoxybenzyl)-1H-indol-3-yl)-3-(3,4-dimethoxyphenyl)allylidene)hydrazine-1-carboximidamide] | 22 ± 0.65 | 198 ± 3.18 | 200
9 | [H]/N=C(/N)NN=C(/C=C/c1ccccc1[N+](=O)[O-])c1cn(Cc2ccccc2)c2ccccc12 [Compound 1n, (Z)-2-((E)-1-(1-Benzyl-1H-indol-3-yl)-3-(2-nitrophenyl)allylidene)hydrazine-1-carboximidamide] | 216 ± 3.61 | 12.3 ± 0.6 | 12.3
10 | [H]/N=C(/N)NN=C(/C=C/c1ccccc1)c1cn(Cc2ccccc2F)c2ccccc12 [Compound 2h, (Z)-2-((E)-1-(1-(2-Fluorobenzyl)-1H-indol-3-yl)-3-phenylallylidene)hydrazine-1-carboximidamide] | 62.86 ± 0.62 | 143.2 ± 0.21 | 145
11 | [H]/N=C(/N)NN=C(/C=C/c1ccc(Br)cc1)c1cn(Cc2ccccc2)c2ccccc12 [Compound 1i, (Z)-2-((E)-1-(1-Benzyl-1H-indol-3-yl)-3-(4-bromophenyl)allylidene)hydrazine-1-carboximidamide] | 73.1 ± 2.07 | 97.83 ± 0.31 | 97.7
12 | [H]/N=C(/N)NN=C(/C=C/c1cc(OC)ccc1OC)c1cn(Cc2ccc(CCCC)cc2)c2ccccc12 [Compound 3l, (Z)-2-((E)-1-(1-(4-Butylbenzyl)-1H-indol-3-yl)-3-(2,5-dimethoxyphenyl)allylidene)hydrazine-1-carboximidamide] | 58.4 ± 0.91 | 196 ± 3.04 | 195
